What all share (type): binding
Assay [1] relates to human monoclonal antibody CRJA.
Assay [2] relates to human monoclonal antibody CRJB.
The subject of assay [3] is human monoclonal antibody CRJB. This is another data set of the same source.
Assay [4] deals with human monoclonal antibody CRJA. This is another data set of the same source.
The test system of assay [5] is human monoclonal antibody CR57.
Assay [6] deals with human monoclonal antibody CR57. The source holds these as a separate data set.

Consider eleven sequences from US20060263802A1 (priority 2003, published 2006).

For EHLVVEELVRKREEC, the “Binding of CRJA to linear peptide (PEPSCAN-ELISA signal)” value (“Binding of CRJA to linear peptide” below) in assay [1] was 76. Besides, the “Binding of CRJB to linear peptide (PEPSCAN-ELISA signal)” value (shortened to “Binding of CRJB to linear peptide”) in assay [2] came out at 114. In assay [3], the “Binding of CRJB (10 μg/ml) to looped/cyclic peptide (PEPSCAN-ELISA)” value amounted to 83. In addition, the “Binding of CRJA (10 μg/ml) to looped/cyclic peptide (PEPSCAN-ELISA)” value in assay [4] turned out to be 93. Moreover, the “Binding of CR57 (10 μg/ml) to looped/cyclic peptide (PEPSCAN-ELISA)” value in assay [5] stood at 89. Besides, in assay [6], the “Binding of CR57 to linear peptide (PEPSCAN-ELISA signal)” value (“Binding of CR57 to linear peptide” for short) came to 82.
As for PDQLVNLHDFRSDEI, the “Binding of CRJA to linear peptide” value in assay [1] is given as 43. Besides, the “Binding of CRJB to linear peptide” value in assay [2] is 106. For the same sequence, the “Binding of CRJB (10 μg/ml) to looped/cyclic peptide (PEPSCAN-ELISA)” value in assay [3] came to 73. In assay [4], the “Binding of CRJA (10 μg/ml) to looped/cyclic peptide (PEPSCAN-ELISA)” value is 46. Besides, the “Binding of CR57 (10 μg/ml) to looped/cyclic peptide (PEPSCAN-ELISA)” value in assay [5] stood at 70. For the same sequence, the “Binding of CR57 to linear peptide” value in assay [6] was found to be 35.
On to SGVAVSSTYCSTNHD, for which the “Binding of CRJA to linear peptide” value in assay [1] is recorded as 84. Besides, the “Binding of CRJB to linear peptide” value in assay [2] came out at 110. In addition, the “Binding of CRJB (10 μg/ml) to looped/cyclic peptide (PEPSCAN-ELISA signal)” value in assay [3] stood at 55. The “Binding of CRJA (10 μg/ml) to looped/cyclic peptide (PEPSCAN-ELISA signal)” value in assay [4] came to 90. Further, in assay [5], the “Binding of CR57 (10 μg/ml) to looped/cyclic peptide (PEPSCAN-ELISA signal)” value is 79. The “Binding of CR57 to linear peptide” value in assay [6] amounted to 79.
Regarding PIYTILDKLGPWSPI, the “Binding of CRJA to linear peptide” value in assay [1] is reported as 143. Also, the “Binding of CRJB to linear peptide” value in assay [2] amounted to 89. Moreover, the “Binding of CRJB (10 μg/ml) to looped/cyclic peptide (PEPSCAN-ELISA signal)” value in assay [3] was found to be 77. Besides, the “Binding of CRJA (10 μg/ml) to looped/cyclic peptide (PEPSCAN-ELISA signal)” value in assay [4] is 78. The “Binding of CR57 (10 μg/ml) to looped/cyclic peptide (PEPSCAN-ELISA signal)” value in assay [5] came out at 58. In addition, the “Binding of CR57 to linear peptide” value in assay [6] was determined as 36.
As to HLSCPNNLVVEDEGC, the “Binding of CRJA to linear peptide” value in assay [1] is listed as 76. Moreover, the “Binding of CRJB to linear peptide” value in assay [2] amounted to 119. Moreover, the “Binding of CRJB (10 μg/ml) to looped/cyclic peptide (PEPSCAN-ELISA signal)” value in assay [3] amounted to 64. Further, the “Binding of CRJA (10 μg/ml) to looped/cyclic peptide (PEPSCAN-ELISA signal)” value in assay [4] is recorded as 92. The “Binding of CR57 (10 μg/ml) to looped/cyclic peptide (PEPSCAN-ELISA signal)” value in assay [5] is 76. Further, the “Binding of CR57 to linear peptide” value in assay [6] was found to be 65.
PYDRSLHSRVFPSGK: in assay [1], the “Binding of CRJA to linear peptide” value is given as 104. For the same sequence, the “Binding of CRJB to linear peptide” value in assay [2] worked out at 120. Also, in assay [3], the “Binding of CRJB (10 μg/ml) to looped/cyclic peptide (PEPSCAN-ELISA signal)” value was 90. Besides, the “Binding of CRJA (10 μg/ml) to looped/cyclic peptide (PEPSCAN-ELISA signal)” value in assay [4] turned out to be 113. The “Binding of CR57 (10 μg/ml) to looped/cyclic peptide (PEPSCAN-ELISA signal)” value in assay [5] came out at 134. The “Binding of CR57 to linear peptide” value in assay [6] is recorded as 86.
Consider VHLPDVHNQVSGVDL, for which, in assay [1], the “Binding of human monoclonal antibody CRJA to linear peptide (PEPSCAN-ELISA signal)” value stood at 104. Moreover, the “Binding of human monoclonal antibody CRJB to linear peptide (PEPSCAN-ELISA signal)” value in assay [2] is reported as 114. Further, the “Binding of CRJB to looped/cyclic peptide (PEPSCAN-ELISA signal)” value in assay [3] stood at 94. Moreover, the “Binding of CRJA to looped/cyclic peptide (PEPSCAN-ELISA signal)” value in assay [4] is on record as 92. In addition, the “Binding of CR57 to looped/cyclic peptide (PEPSCAN-ELISA signal)” value in assay [5] was found to be 105. Moreover, the “Binding of human monoclonal antibody CR57 to linear peptide (PEPSCAN-ELISA signal)” value in assay [6] was 110.
Regarding LRKLVPGFGKAYTIF, the “Binding of CRJA to linear peptide” value in assay [1] is recorded as 116. Further, the “Binding of CRJB to linear peptide” value in assay [2] is given as 118. Besides, the “Binding of CRJB (10 μg/ml) to looped/cyclic peptide (PEPSCAN-ELISA)” value in assay [3] worked out at 105. The “Binding of CRJA (10 μg/ml) to looped/cyclic peptide (PEPSCAN-ELISA)” value in assay [4] is given as 87. Besides, the “Binding of CR57 (10 μg/ml) to looped/cyclic peptide (PEPSCAN-ELISA)” value in assay [5] was found to be 92. The “Binding of CR57 to linear peptide” value in assay [6] turned out to be 83.
Take LDKLGPWSPIDIHHL: in assay [1], the “Binding of CRJA to linear peptide” value is listed as 59. For the same sequence, the “Binding of CRJB to linear peptide” value in assay [2] stood at 99. Also, in assay [3], the “Binding of CRJB (10 μg/ml) to looped/cyclic peptide (PEPSCAN-ELISA signal)” value was found to be 65. Moreover, in assay [4], the “Binding of CRJA (10 μg/ml) to looped/cyclic peptide (PEPSCAN-ELISA signal)” value is given as 82. For the same sequence, in assay [5], the “Binding of CR57 (10 μg/ml) to looped/cyclic peptide (PEPSCAN-ELISA signal)” value is listed as 93. The “Binding of CR57 to linear peptide” value in assay [6] was determined as 55.
For SPIDIHHLSCPNNLV, in assay [1], the “Binding of CRJA to linear peptide” value is recorded as 100. Besides, the “Binding of CRJB to linear peptide” value in assay [2] was 85. Besides, the “Binding of CRJB (10 μg/ml) to looped/cyclic peptide (PEPSCAN-ELISA signal)” value in assay [3] is on record as 72. Besides, the “Binding of CRJA (10 μg/ml) to looped/cyclic peptide (PEPSCAN-ELISA signal)” value in assay [4] was 92. Moreover, the “Binding of CR57 (10 μg/ml) to looped/cyclic peptide (PEPSCAN-ELISA signal)” value in assay [5] is recorded as 94. In addition, in assay [6], the “Binding of CR57 to linear peptide” value was 74.
With CLRVGGRCHPHVNGV, the “Binding of CRJA to linear peptide” value in assay [1] is 103. Besides, the “Binding of CRJB to linear peptide” value in assay [2] was 132. Besides, the “Binding of CRJB (10 μg/ml) to looped/cyclic peptide (PEPSCAN-ELISA)” value in assay [3] was determined as 104. Also, in assay [4], the “Binding of CRJA (10 μg/ml) to looped/cyclic peptide (PEPSCAN-ELISA)” value amounted to 111. The “Binding of CR57 (10 μg/ml) to looped/cyclic peptide (PEPSCAN-ELISA)” value in assay [5] is on record as 101. In assay [6], the “Binding of CR57 to linear peptide” value was 102.
